Measurements from patent publication USRE48461E1, “Modulation of androgen receptor expression” (Ionis Pharmaceuticals, Inc., priority 2012, dated 2021).
Oligonucleotides are written 5' to 3', each unit as a sugar letter and its base; * is a phosphorothioate linkage, no mark a phosphodiester; rarer units and linkages stand in square brackets, end groups in braces. Plain capitals give the bases only. k = constrained ethyl (cEt); [5mC] = 5-methylcytosine; d = 2'-deoxy (DNA)

Assays:
[1] = system: CWR22-RV1 cells; experiment: CWR22-RV1 cell proliferation (CellTiter 96); format: cell-based, human; conditions: RNAiMax, 6 days
Protocol: (§1) CWR22-RV1 cells were plated and transfected using RNAiMax reagent (Life Technologies) with ISIS oligonucleotides at 1.7 nM, 5.0 nM, 16.7 nM, or 50 nM concentrations. ISIS 347526 was included as a negative control. After a treatment period of 6 days, the target reduction and proliferative capacity of the cancer cells was measured.
(§2) Antisense inhibition of AR full-length mRNA was measured with the RTS3559 primer probe set. The results are presented in Table 63 as percent inhibition relative to non-treated cells. The reduction in V7 splice variant of the AR mRNA was also measured by RT-PCR using SYBR Green staining (Hu, R. et al., Cancer Res. 2009. 69: 16-22). The results are presented in Table 64, as percent reduction, relative to non-treated cells. Cell proliferation was measured with CellTiter 96® AQueous One Solution Cell Proliferation kit (Promega), following the manufacturer's instructions. Results are presented in Table 65 as percent inhibition of proliferation, relative to non-treated cells.

[2] = system: AR mRNA; experiment: AR mRNA in C4-2B cells by free uptake (hAR_LTS00943); format: cell-based, human; conditions: 24 hrs; for Percent inhibition of AR full-length mRNA: free uptake
Protocol: (§3) Cells were plated at a concentration of 1,000 cells/well in 96-well plates to measure cell proliferation, and at 4,000 cells/well to measure target reduction. ISIS 549458, ISIS 549372, ISIS 549434, and ISIS 554221 were added individually at 0.04 μM, 0.20 μM, 1.00 μM, or 5.00 μM. After an incubation period of 24 hrs, mRNA levels were measured using hAR_LTS00943.

[3] = system: C4-2B MR cells; experiment: Proliferation of MDV3100-resistant C4-2B cells (CellTiter 96); format: cell-based, human; conditions: 0.04-5.00 μM, 6 days
Protocol: ISIS 549372, ISIS 549434, ISIS 549458, and ISIS 554221 were each added to the culture media at 0.04 μM, 0.20 μM, 1.00 μM, and 5.00 μM concentration of antisense oligonucleotide. ISIS 347526 was included as a negative control. After a treatment period of 6 days, the proliferative capacity of the cancer cells was measured with using CellTiter 96® AQueous One Solution Cell Proliferation kit (Promega), following the manufacturer's instructions. Results are presented in Table 41 as percent inhibition of proliferation, relative to non-treated cells.

[4] = system: V7 splice variant of the AR mRNA; experiment: AR V7 splice variant mRNA in CWR22-RV1 cells (RT-PCR SYBR Green); format: cell-based, human; conditions: RNAiMax, 6 days
Protocol: as §1, §2

[5] = system: full-length AR; experiment: Western blot of full-length AR in MDV3100-resistant C4-2B cells; format: cell-based, human; conditions: C4-2B MR cells (Example 16)
Protocol: ISIS 549372, ISIS 549434, and ISIS 554221 at 1 μM concentration of antisense oligonucleotide were each added to the culture media at 1 μM concentration for free uptake by the cells. After a treatment period of 2 days, cells were harvested in RIPA buffer containing protease inhibitors. The presence of bands for full-length AR, as well as the variant form, AR-V7, was detected by western blot using AR antibody (N-20, Santa Cruz).
Western analysis of full-length AR, as well as the AR-V7 variant, was also conducted in a manner similar to the assay described above.

[6] = system: AR full-length mRNA; experiment: AR full-length mRNA in CWR22-RV1 cells (RNAiMax, RTS3559); format: cell-based, human; conditions: 6 days
Protocol: as §1, §2

[7] = system: C4-2B cells; experiment: C4-2B cell proliferation by free uptake (MTT); format: cell-based, human; conditions: day 6
Protocol: as §3
On day 6, cells plated for measuring proliferation were incubated with MTT reagent until the development of color. Color intensity was measured using a spectrophotometer at 490 nm.

[8] = system: total AR mRNA; experiment: Total (full-length) AR mRNA in C4-2B MR cells, free uptake; format: cell-based, human; conditions: C4-2B MR cells, 0.04-5.00 μM free uptake, 24 hrs
Protocol: Cells were plated at a density of 40,000 cells per well in 96-well plates and cultured in RPMI1640 medium with 10% fetal bovine serum. […] ISIS 549372, ISIS 549458, ISIS 549434, and ISIS 554221 were each added at 0.04 μM, 0.20 μM, 1.00 μM, and 5.00 μM concentrations of antisense oligonucleotide to culture media for free uptake by the cells. […] After a treatment period of 24 hrs, total AR mRNA levels were measured by quantitative real-time PCR using primer probe set RTS3559.

[9] = system: KLK2 mRNA; experiment: KLK2 mRNA (AR target gene) in C4-2B MR cells; format: cell-based, human; conditions: C4-2B MR cells, 0.04-5.00 μM
[10] = system: KLK3 mRNA; experiment: KLK3 mRNA (AR target gene) in C4-2B MR cells; format: cell-based, human; conditions: C4-2B MR cells, 0.04-5.00 μM
[11] = cynomolgus monkey, in vivo, sc, 40 mg/kg
[12] = cynomolgus monkey, in vivo, sc, 40 mg/kg; remark: listed apart in the source
[13] = cynomolgus monkey, in vivo, sc, 40 mg/kg; remark: listed apart in the source
[14] = cynomolgus monkey, in vivo, sc, 40 mg/kg; remark: listed apart in the source
[15] = cynomolgus monkey, in vivo, sc, 40 mg/kg; remark: listed apart in the source
[16] = cynomolgus monkey, in vivo, sc, 40 mg/kg; remark: listed apart in the source
[17] = cynomolgus monkey, in vivo; for Oligonucleotide concentration, Kidney / Oligonucleotide concentration, Liver: sc, 40 mg/kg
Protocol: Prior to the study, the monkeys were kept in quarantine for a 30-day period, during which the animals were observed daily for general health. The monkeys were 2-4 years old and weighed between 2 and 4 kg. Thirteen groups of four randomly assigned male cynomolgus monkeys each were injected subcutaneously with ISIS oligonucleotide or PBS. PBS solution or ISIS oligonucleotides, at a dose of 40 mg/kg, were administered with a loading regimen consisting of four doses on the first week of the study (days 1, 3, 5, and 7), followed by a maintenance regimen consisting of once weekly administration starting on Day 14 (weeks 2 to 6). Subcutaneous injections were performed in clock-wise rotations at 4 sites on the back; one site per dose. The injection sites were delineated by tattoo, while sedated using ketamine, and were separated by a minimum of 3 cm.
The concentrations of the full-length oligonucleotide in the kidney and the liver of select treatment groups were measured. The method used is a modification of previously published methods (Leeds et al., 1996; Geary et al., 1999) which consist of a phenol-chloroform (liquid-liquid) extraction followed by a solid phase extraction.

[18] = system: testosterone; experiment: Serum testosterone levels in cynomolgus monkeys (ELISA); format: in vivo; conditions: cynomolgus monkey, 40 mg/kg subcutaneously
Protocol: Serum testosterone protein levels were measured in the plasma with an ELISA kit (Enzo Life Sciences), following the manufacturer's instructions.

## CTAAACTTCCCGTGGC (k[5mC]*kT*kA*dA*dA*d[5mC]*dT*dT*d[5mC]*d[5mC]*d[5mC]*dG*dT*kG*kG*k[5mC]) [ISIS 549434, targets 3'-end of exon 8]
[1]; dose 5.0 nM
  Percent inhibition of cell proliferation: 15%
[1]; dose 16.7 nM
  Percent inhibition of cell proliferation: 13%
[1]; dose 50.0 nM
  Percent inhibition of cell proliferation: 38%
[2]; free uptake 0.04-5.00 μM
  AR mRNA expression: inhibited AR mRNA expression more potently than ISIS 554221
[2]; dose 0.04 μM
  Percent inhibition of AR full-length mRNA: 10%
[2]; dose 0.20 μM
  Percent inhibition of AR full-length mRNA: 35%
[2]; dose 1.00 μM
  Percent inhibition of AR full-length mRNA: 52%
[2]; dose 5.00 μM
  Percent inhibition of AR full-length mRNA: 55%
[3]
  proliferation of C4-2B MR cells: reduced proliferation of the cells in a dose dependent manner more extensively than treatment with ISIS 554221
[4]; dose 5.0 nM
  Percent inhibition of AR splice variant, V7: 20%
[4]; dose 16.7 nM
  Percent inhibition of AR splice variant, V7: 4%
[4]; dose 50.0 nM
  Percent inhibition of AR splice variant, V7: 23%
[5]
  levels of full-length AR (Western analysis): reduced levels of full-length AR
[6]; dose 5.0 nM
  Percent inhibition of AR full-length mRNA: 46%
[6]; dose 16.7 nM
  Percent inhibition of AR full-length mRNA: 69%
[6]; dose 50.0 nM
  Percent inhibition of AR full-length mRNA: 86%
[7]; dose 0.04 μM
  Percent inhibition of cell proliferation: 0%
[7]; dose 0.20 μM
  Percent inhibition of cell proliferation: 14%
[7]; dose 1.00 μM
  Percent inhibition of cell proliferation: 35%
[7]; dose 5.00 μM
  Percent inhibition of cell proliferation: 37%
[8]
  total AR transcript levels: reduced total AR transcript levels in a dose dependent manner more extensively than treatment with ISIS 554221
[9]
  AR target gene KLK2 mRNA levels: reduced target gene levels in a dose dependent manner more extensively than treatment with ISIS 554221
[10]
  AR target gene KLK3 mRNA levels: reduced target gene levels in a dose dependent manner more extensively than treatment with ISIS 554221

## ISIS 584149: antisense compound targeted to human AR (GTCAATATCAAAGCAC; 3-10-3 (S)-cEt gapmer, further chemistry not given here)
[11]
  Urine protein/creatinine ratio: 0.01
[12]
  Plasma BUN: 26.4 mg/dL
  Plasma Creatinine: 0.85 mg/dL
[13]
  Body Wt: 2.5 kg
  Heart weight: 9.3 g
  Kidney weight: 13 g
  Liver weight: 60 g
  Mesenteric lymph nodes weight: 2.1 g
  Spleen weight: 2.2 g
[14]
  ALT: 57 IU/L
  AST: 58 IU/L
  Albumin: 4.5 g/dL
[15]
  HCT: 45%
  Hemoglobin: 13.7 g/dL
  Platelets: 478000 µL
  RBC: 5.7e+06 µL
  WBC: 11300 µL
[16]
  C3 (% of baseline): 110 % of baseline
  CRP: 1.7 mg/dL

## ISIS 584163: antisense compound targeted to human AR (GAACATTATTAGGCTA; 3-10-3 (S)-cEt gapmer, further chemistry not given here)
[11]
  Urine protein/creatinine ratio: 0.01
[12]
  Plasma BUN: 22.4 mg/dL
  Plasma Creatinine: 0.82 mg/dL
[13]
  Body Wt: 2.5 kg
  Heart weight: 8.4 g
  Kidney weight: 15 g
  Liver weight: 54 g
  Mesenteric lymph nodes weight: 3.3 g
  Spleen weight: 3.2 g
[14]
  ALT: 50 IU/L
  AST: 68 IU/L
  Albumin: 4.2 g/dL
[15]
  HCT: 44%
  Hemoglobin: 12.8 g/dL
  Platelets: 461000 µL
  RBC: 5.5e+06 µL
  WBC: 9100 µL
[16]
  C3 (% of baseline): 102 % of baseline
  CRP: 1.0 mg/dL

## ISIS 584269: antisense compound targeted to human AR (CCTTATGGATGCTGCT; 3-10-3 (S)-cEt gapmer, further chemistry not given here)
[11]
  Urine protein/creatinine ratio: 0.00
[12]
  Plasma BUN: 21.8 mg/dL
  Plasma Creatinine: 0.89 mg/dL
[13]
  Body Wt: 2.5 kg
  Heart weight: 8.7 g
  Kidney weight: 13 g
  Liver weight: 60 g
  Mesenteric lymph nodes weight: 3.6 g
  Spleen weight: 4.7 g
[14]
  ALT: 75 IU/L
  AST: 81 IU/L
  Albumin: 4.0 g/dL
[17]
  K/L ratio: 4.0
  Oligonucleotide concentration, Kidney: 2823 μg/g tissue
  Oligonucleotide concentration, Liver: 698 μg/g tissue
[15]
  HCT: 41%
  Hemoglobin: 12.4 g/dL
  Platelets: 522000 µL
  RBC: 5.2e+06 µL
  WBC: 9800 µL
[16]
  C3 (% of baseline): 102 % of baseline
  CRP: 4.9 mg/dL
[18]
  Serum testosterone level: 14.1 ng/mL

## ISIS 584468: antisense compound targeted to human AR (CATTGTACTATGCCAG; 3-10-3 (S)-cEt gapmer, further chemistry not given here)
[11]
  Urine protein/creatinine ratio: 0.00
[12]
  Plasma BUN: 22.2 mg/dL
  Plasma Creatinine: 0.78 mg/dL
[13]
  Body Wt: 2.5 kg
  Heart weight: 8.3 g
  Kidney weight: 13 g
  Liver weight: 60 g
  Mesenteric lymph nodes weight: 3.8 g
  Spleen weight: 4.1 g
[14]
  ALT: 46 IU/L
  AST: 52 IU/L
  Albumin: 4.0 g/dL
[17]
  K/L ratio: 5.2
  Oligonucleotide concentration, Kidney: 2441 μg/g tissue
  Oligonucleotide concentration, Liver: 474 μg/g tissue
[15]
  HCT: 45%
  Hemoglobin: 13.5 g/dL
  Platelets: 408000 µL
  RBC: 5.9e+06 µL
  WBC: 11100 µL
[16]
  C3 (% of baseline): 111 % of baseline
  CRP: 1.3 mg/dL
[18]
  Serum testosterone level: 13.6 ng/mL

## TGATTTAATGGTTGCA [ISIS 569221] (cEt/MOE gapmer chemistry, further chemistry not given here)
[12]
  Plasma BUN: 20.2 mg/dL
  Plasma Creatinine: 0.86 mg/dL
[13]
  Body Wt: 2.5 kg
  Heart weight: 8.5 g
  Kidney weight: 14 g
  Liver weight: 68 g
  Mesenteric lymph nodes weight: 3.5 g
  Spleen weight: 3.3 g
[14]
  ALT: 48 IU/L
  AST: 73 IU/L
  Albumin: 4.0 g/dL
[17]
  Oligonucleotide concentration, Kidney: 1372 μg/g tissue
  Oligonucleotide concentration, Liver: 966 μg/g tissue
[15]
  HCT: 45%
  Hemoglobin: 12.9 g/dL
  Platelets: 406000 µL
  RBC: 5.6e+06 µL
  WBC: 11100 µL
[16]
  C3 (% of baseline): 91 % of baseline
  CRP: 4.9 mg/dL
[18]; 40 mg/kg
  Serum testosterone level: 8.8 ng/mL
